Several values for one entry are separate records, joined by “and”; a condition that tells them apart may be missing. Identical values can stand only once. Like-named read-outs stand apart in the source and are kept apart here. Where a SMILES comes first, the peptide text is derived from it.
Legend:
[1] = tested on: primary human monocyte-derived macrophages; assay: MIF-mediated DiI-LDL uptake / foam cell formation; format: cell-based; conditions: 80 nM MIF
Experimental: (§1) After washing with imaging solution (MEM without phenol red containing 30 mM HEPES, 0.5 g/L NaHCO3, pH 7.4, and 0.2% BSA), cells were exposed to 50 µg mL^−1 1,1′-dioctadecyl-3,3,3′3′-tetramethylindocarbocyanine-labeled oxidized LDL (DiI-oxLDL) or DiI-labeled native LDL (DiI-LDL) for 30 min at 4 °C, followed by incubation at 37 °C for 20 min. Cells were washed with ice-cold imaging solution (pH 3.5), fixed, and counter-stained with Hoechst 33258.

[2] = tested on: primary human monocyte-derived macrophages; assay: MIF-mediated DiI-oxLDL uptake / foam cell formation; format: cell-based; conditions: 80 nM MIF; AMD3100 10 µM
Experimental: as §1

[3] = tested on: pAMPK/AMPK in HCM; assay: MIF/CD74-triggered AMPK signaling in human cardiomyocytes (HCM); format: cell-based
Experimental: HCMs (2 × 10^5 per well) were plated in 12-well plates and maintained for 2 days with cultured medium containing 5% FCS. Before stimulation, medium was replaced by fresh myocyte basal medium containing 0.05% FCS and HCMs rested for 16 h. Surface CD74 expression on HCMs was verified by flow cytometry (FITC-conjugated anti-human CD74 (1:100 dilution), FITC-IgG2 (isotype control) (BD Pharmingen), 1 h/4 °C in the dark, BD FACSVerse™ flow cytometer, FlowJo software). […] After treatment, cells were lysed and subjected to SDS-PAGE (10%)/Western blotting using NuPAGE® lithium dodecyl sulfate (LDS)/dithiothreitol (DTT) lysis buffer-containing PhosSTOP^TM reagent (Roche Applied Science). […] Anti-rabbit horse-radish peroxidase (HRP)-conjugated antibody (1:10000, GE Healthcare, Freiburg, Germany) was used for development and signals quantitated by chemiluminescence using an Odyssey® Fc imager. Unprocessed scans of the Western blots are supplied in the Source Data file.

[4] = tested on: MIF/CD74; conditions: read-out: IC50 value for MIF/CD74 binding; ref [16],[43]; cited from earlier work
Text: Specificity of the inhib ...

[5] = in vivo
Experimental: Plasma was immediately separated by centrifugation at 3000 rpm for 10 min at 4 °C, and placed on ice protected from light. Plasma aliquots were diluted (1:1) with SDS-PAGE sample buffer, boiled, analyzed in 10–20% Tricine SDS-PAGE gels, and red fluorescent bands imaged by Odyssey® Fc imager.

[6] = in vitro; conditions: C57/BL6, mouse, plasma
Experimental: (§2) Mouse plasma was prepared from blood of wildtype C57/BL6 mice by standard procedure. […] Samples were then diluted in 2x Novex Tricine SDS sample buffer (Life Technologies) at a ratio of 1:6, electrophoresed in a 10–20% Tricine gel, and red fluorescent bands directly imaged with an Odyssey® Fc imager. Human plasma was prepared from blood of healthy volunteers by standard procedure.

[7] = in vitro; conditions: human, plasma
Experimental: as §2

[8] = tested on: primary mouse spleen B lymphocytes; assay: MIF-triggered Transwell chemotaxis of primary splenic B cells; format: cell-based; conditions: 16 nM MIF; peptide at 5-fold molar excess (80 nM);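 note: migration tracked over 4 h at 37 °C, read out as transmigrated cells counted by flow cytometry with absolute counting beads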
Experimental: Briefly, splenic B cells were isolated by negative depletion using a Pan B Cell Isolation Kit (Miltenyi Biotec, Bergisch Gladbach, Germany). […] Chemotaxis was followed for 4 h at 37 °C in a humidified atmosphere of 5% CO2. Migrated cells were counted by flow cytometry using CountBright™ Absolute Counting Beads (Molecular Probes-Invitrogen).

[9] = molecular target: T1, MIF (Homo sapiens, UniProt P14174); assay: Fluorescence spectroscopic titration of CXCR4 ectodomain peptides (and ISO-1) with MIF; format: binding
T1 construct: made in house; host or cells: E. coli BL21/DE3 (pET11b)
T1 sequence (P14174 2-115): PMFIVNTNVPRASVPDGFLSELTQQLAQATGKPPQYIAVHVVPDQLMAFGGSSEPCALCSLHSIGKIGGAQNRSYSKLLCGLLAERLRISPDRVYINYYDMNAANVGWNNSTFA
Experimental: Fluorescence spectroscopic titrations were performed using a JASCO FP-6500 fluorescence spectrophotometer.

[10] = Circular dichroism (CD) spectroscopy (conformation, concentration dependence); format: physicochemical; conditions: far-UV CD at 1-20 µM, 10 mM sodium phosphate pH 7.4, 1% HFIP; region 210-225 nm; compared with msR4M-L1
Experimental: Briefly, far-UV CD measurements were carried out between 195 and 250 nm. The response time was set at 1 s, intervals at 0.1 nm, and bandwidth at 1 nm. All spectra were measured at RT and represent an average of three recorded spectra. Scans were recorded for the ectodomain mimic peptides at a concentration of 1–20 µM in 10 mM sodium phosphate buffer, pH 7.4, containing 1% HFIP, following dilution of freshly made peptide stock solution in HFIP (4 °C) into the buffer-containing cuvette. […] The background spectrum of buffer/1% HFIP alone was subtracted from the spectra of the peptides.

## c1cc(CN2CCCNCCNCCCNCC2)ccc1CN1CCCNCCNCCCNCC1 [AMD3100]
[1]; control ~1, MIF alone 2.09-3.63, individual experiments (four-times-two)
  DiI-LDL uptake (rel. units), MIF + AMD3100: 0.6486 and 2.2972 and 2.822 and 1.2299 and 1.463 and 1.618 and 1.791 and 1.537
[2]
  effect on MIF-mediated DiI-oxLDL uptake: blocked

## COC(=O)CC1CC(c2ccc(O)cc2)=NO1 (centres unmarked) [ISO-1]
[3]; B-C: MIF alone vs. MIF + ISO-1 3.1
  Fig. 4e, Mean Diff, (Tukey's multiple comparisons test): 0.3348
[3]; B-D: MIF alone vs. MIF + ISO-1 15.6
  Fig. 4e, Mean Diff, (Tukey's multiple comparisons test): 0.4593
[3]; B-E: MIF alone vs. MIF + ISO-1 31.3
  Fig. 4e, Mean Diff, (Tukey's multiple comparisons test): 0.6907
[3]; B-F: MIF alone vs. MIF + ISO-1 62.5
  Fig. 4e, Mean Diff, (Tukey's multiple comparisons test): 0.8729
[4]
  IC50: 10000 nM

## CC[C@H](C)[C@H](NC(=O)[C@H](Cc1ccc(O)cc1)NC(=O)[C@H](CCCNC(=N)N)NC(=O)[C@H](CC(=O)O)NC(=O)CCCCCCCCCCCNC(=O)CCCCCNC(=O)[C@H](CCCCN)NC(=O)[C@H](CS)NC(=O)[C@H](CC(C)C)NC(=O)[C@H](Cc1ccccc1)NC(=O)[C@H](CC(N)=O)NC(=O)CNC(=O)[C@H](Cc1ccccc1)NC(=O)[C@H](Cc1ccc(O)cc1)NC(=O)[C@H](Cc1c[nH]c2ccccc12)NC(=O)[C@H](CC(N)=O)NC(=O)[C@H](C)NC(=O)[C@@H](NC(=O)[C@H](C)NC(=O)[C@H](CC(=O)O)NC(=O)c1ccc2c(c1)C(=O)OC21c2ccc(N(C)C)cc2Oc2cc(N(C)C)ccc21)C(C)C)C(=O)N[C@@H](CS)C(=O)N[C@@H](CC(=O)O)C(=O)N[C@@H](CCCNC(=N)N)C(=O)N[C@@H](Cc1ccccc1)C(=O)N[C@@H](Cc1ccc(O)cc1)C(=O)N1CCC[C@H]1C(=O)N[C@@H](CC(N)=O)C(=O)N[C@@H](CC(=O)O)C(=O)N[C@@H](CC(C)C)C(=O)N[C@@H](Cc1c[nH]c2ccccc12)C(=O)N[C@H](C(N)=O)C(C)C [TAMRA-msR4M-L1]
[5]; C57/BL6, mouse, 50 ug
  level at 24 h: > 100 ng/mL
[5]; C57BL/6, mouse, ip, 50 ug per mouse
  level at 48 h: ~100 ng/mL
[6]
  half-life at 482 nM: ~20 h

## CC[C@H](C)[C@H](NC(=O)[C@H](Cc1ccc(O)cc1)NC(=O)[C@H](CCCNC(=N)N)NC(=O)[C@H](CC(=O)O)NC(=O)CCCCCCCCCCCNC(=O)CCCCCNC(=O)[C@H](CCCCN)NC(=O)[C@H](CS)NC(=O)[C@H](CC(C)C)NC(=O)[C@H](Cc1ccccc1)NC(=O)[C@H](CC(N)=O)NC(=O)CNC(=O)[C@H](Cc1ccccc1)NC(=O)[C@H](Cc1ccc(O)cc1)NC(=O)[C@H](Cc1c[nH]c2ccccc12)NC(=O)[C@H](CC(N)=O)NC(=O)[C@H](C)NC(=O)[C@@H](NC(=O)[C@H](C)NC(=O)[C@H](CC(=O)O)NC(=O)CCCCCNC(=O)CCCC[C@@H]1SC[C@@H]2NC(=O)N[C@@H]21)C(C)C)C(=O)N[C@@H](CS)C(=O)N[C@@H](CC(=O)O)C(=O)N[C@@H](CCCNC(=N)N)C(=O)N[C@@H](Cc1ccccc1)C(=O)N[C@@H](Cc1ccc(O)cc1)C(=O)N1CCC[C@H]1C(=O)N[C@@H](CC(N)=O)C(=O)N[C@@H](CC(=O)O)C(=O)N[C@@H](CC(C)C)C(=O)N[C@@H](Cc1c[nH]c2ccccc12)C(=O)N[C@H](C(N)=O)C(C)C [biotin-msR4M-L1]
[7]
  remaining at 16 h, 13.7 µM: ~45%

## CC[C@H](C)[C@H](NC(=O)[C@H](Cc1ccc(O)cc1)NC(=O)[C@H](CCCNC(=N)N)NC(=O)[C@H](CC(=O)O)NC(=O)CCCCCCCCCCCNC(=O)CCCCCNC(=O)[C@H](CCCCN)NC(=O)[C@H](CS)NC(=O)[C@H](CC(C)C)NC(=O)[C@H](C)NC(=O)[C@H](CC(N)=O)NC(=O)CNC(=O)[C@H](C)NC(=O)[C@H](C)NC(=O)[C@H](C)NC(=O)[C@H](CC(N)=O)NC(=O)[C@H](C)NC(=O)[C@@H](NC(=O)[C@H](C)NC(=O)[C@@H](N)CC(=O)O)C(C)C)C(=O)N[C@@H](CS)C(=O)N[C@@H](CC(=O)O)C(=O)N[C@@H](CCCNC(=N)N)C(=O)N[C@@H](C)C(=O)N[C@@H](C)C(=O)N1CCC[C@H]1C(=O)N[C@@H](CC(N)=O)C(=O)N[C@@H](CC(=O)O)C(=O)N[C@@H](CC(C)C)C(=O)N[C@@H](C)C(=O)N[C@H](C(N)=O)C(C)C [msR4M-L1(7xAla)] (HELM PEPTIDE1{D.A.V.A.N.A.A.A.G.N.A.L.C.K.[O=C(CCCCCN[*:1])[*:2]].[O=C(CCCCCCCCCCCN[*:1])[*:2]].D.R.Y.I.C.D.R.A.A.P.N.D.L.A.V.[am]}$$$$V2.0)
[8]
  inhibition of MIF-mediated B-cell chemotaxis: failed to inhibit
[1]
  inhibition of MIF-mediated DiI-LDL uptake: failed to inhibit
[9]
  Kd: > 1000 nM
[9]; App. Kd Fluos-peptide/MIF, 1st curve, fluorescence spectroscopy, replicate 1
  Kd: > 1000 nM
[9]; App. Kd Fluos-peptide/MIF, 2nd curve, fluorescence spectroscopy, replicate 2
  Kd: > 1000 nM
[9]; App. Kd Fluos-peptide/MIF, 3rd curve, fluorescence spectroscopy, replicate 3
  Kd: > 1000 nM
[9]; app. KD Fluos-labeled alanine analog/MIF, fluorescence titration spectroscopy, n=3
  Kd: > 1000 nM

## CC[C@H](C)[C@H](NC(=O)[C@H](Cc1ccc(O)cc1)NC(=O)[C@H](CCCNC(=N)N)NC(=O)[C@H](CC(=O)O)NC(=O)CCCCCCCCCCCNC(=O)COCCOCCNC(=O)[C@H](CCCCN)NC(=O)[C@H](CS)NC(=O)[C@H](CC(C)C)NC(=O)[C@H](Cc1ccccc1)NC(=O)[C@H](CC(N)=O)NC(=O)CNC(=O)[C@H](Cc1ccccc1)NC(=O)[C@H](Cc1ccc(O)cc1)NC(=O)[C@H](Cc1c[nH]c2ccccc12)NC(=O)[C@H](CC(N)=O)NC(=O)[C@H](C)NC(=O)[C@@H](NC(=O)[C@H](C)NC(=O)[C@@H](N)CC(=O)O)C(C)C)C(=O)N[C@@H](CS)C(=O)N[C@@H](CC(=O)O)C(=O)N[C@@H](CCCNC(=N)N)C(=O)N[C@@H](Cc1ccccc1)C(=O)N[C@@H](Cc1ccc(O)cc1)C(=O)N1CCC[C@H]1C(=O)N[C@@H](CC(N)=O)C(=O)N[C@@H](CC(=O)O)C(=O)N[C@@H](CC(C)C)C(=O)N[C@@H](Cc1c[nH]c2ccccc12)C(=O)N[C@H](C(N)=O)C(C)C [msR4M-L2]
[8]
  inhibition of MIF-mediated B-cell chemotaxis: fully blocked
[10]
  aggregation propensity from concentration-dependent CD signal: higher aggregation propensity

Reference: article PMC7689490, “Designed CXCR4 mimic acts as a soluble chemokine receptor that blocks atherogenic inflammation by agonist-specific targeting” (Nature Communications, 2020)
